Laboratory results reported in patent publication US20100179158A1, “INHIBITORS OF CYCLIC AMP PHOSPHODIESTERASES” (priority 2007, published 2010).

Assays:
PDE4A1 = target: T1, PDE4A1 (Mus musculus, UniProt O89084); assay: Fission yeast 5FOA growth assay, strain expressing PDE4A1; format: cell-based, murine; details: 5FOA growth screen; for 2 Assay (2 uM), PDE 4A1: 2 uM compound; for 1 Assay (20 uM), PDE 4A1: 20 uM compound
T1 construct: targets used in the assays are full-length proteins (as opposed to simply the catalytic domain); expressed in transfected cells; host or cells: Schizosaccharomyces pombe, gene integrated at the cgs2 locus
T1 sequence (O89084 1-610 isoform O89084-2): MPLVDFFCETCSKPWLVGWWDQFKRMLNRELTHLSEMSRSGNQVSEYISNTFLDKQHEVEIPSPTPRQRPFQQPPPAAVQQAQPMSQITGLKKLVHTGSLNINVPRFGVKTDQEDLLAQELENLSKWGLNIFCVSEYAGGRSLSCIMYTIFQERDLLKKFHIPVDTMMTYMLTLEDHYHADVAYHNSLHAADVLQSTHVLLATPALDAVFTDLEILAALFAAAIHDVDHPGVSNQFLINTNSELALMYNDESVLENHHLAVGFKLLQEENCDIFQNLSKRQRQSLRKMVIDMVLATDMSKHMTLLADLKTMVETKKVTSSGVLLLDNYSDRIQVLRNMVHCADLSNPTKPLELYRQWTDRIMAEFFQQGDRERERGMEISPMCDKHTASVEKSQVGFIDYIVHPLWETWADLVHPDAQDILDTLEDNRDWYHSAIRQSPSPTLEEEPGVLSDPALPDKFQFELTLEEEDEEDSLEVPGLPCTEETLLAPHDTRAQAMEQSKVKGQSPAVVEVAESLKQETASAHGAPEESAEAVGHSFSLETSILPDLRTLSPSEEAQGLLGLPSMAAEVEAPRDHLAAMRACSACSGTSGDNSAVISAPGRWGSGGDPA
Method: (§1) High throughput drug screens were carried out at the Broad Institute's Chemical Biology Program screening facility (Broad Institute, Cambridge, Mass.). Depending upon the strain, cultures were pregrown to exponential phase in EMM complete medium containing from 0.5 to 2.5 mM cAMP to repress fbp1-ura4 transcription. […] Starting cell concentrations ranged from 0.5×10^5 to 4×10^5 cells/ml depending on the screening strain. […] Other positive control dishes contained 5 mM cAMP in the 5FOA medium. Cultures were grown for 48 hours at 30° C., sealed in an airtight container with moist paper towels to prevent evaporation. Optical densities (OD600) of cultures were measured using a microplate reader. Bioinformatic analysis of the results to determine composite Z scores was performed as previously described^30, 31.
(§2) Cells were pregrown in EMM medium [MP Biomedicals (Solon, OH), 3% glucose, filter-sterilized to avoid carmelization, which would introduce variability into the optical density of the medium] containing from 0 mM to 2.5 mM cAMP (or either 0.5 mM or 1.0 mM cGMP). This was to repress expression of the fbp1-ura4 reporter prior to exposure of cells to 5FOA medium. Cells were grown at 30° C. to exponential phase (approximately 10^7 cells/ml). […] Starting cell concentrations ranged from 0.5×10^5 to 4×10^5 cells/ml depending on the screening strain. […] Other positive control dishes contained 5 mM cAMP in the 5FOA medium for PDEs that lack appropriate control compounds. Cultures were grown for 48 hours at 30° C., sealed in an airtight container with moist paper towels to prevent evaporation. Optical densities (OD600) of cultures were measured using a microplate reader. Bioinformatic analysis of the results to determine composite Z scores was performed as previously described (1, 3).

PDE4B3 = target: T2, PDE4B3 (Mus musculus, UniProt Q8VBU5); assay: Fission yeast 5FOA growth assay, strain expressing PDE4B3; format: cell-based, murine; details: 5FOA growth screen; for 2 Assay (2 uM), PDE 4B3: 2 uM compound; for 1 Assay (20 uM), PDE 4B3: 20 uM compound
T2 construct: targets used in the assays are full-length proteins (as opposed to simply the catalytic domain); expressed in transfected cells; host or cells: Schizosaccharomyces pombe, gene integrated at the cgs2 locus
T2 sequence (Q8VBU5 1-721): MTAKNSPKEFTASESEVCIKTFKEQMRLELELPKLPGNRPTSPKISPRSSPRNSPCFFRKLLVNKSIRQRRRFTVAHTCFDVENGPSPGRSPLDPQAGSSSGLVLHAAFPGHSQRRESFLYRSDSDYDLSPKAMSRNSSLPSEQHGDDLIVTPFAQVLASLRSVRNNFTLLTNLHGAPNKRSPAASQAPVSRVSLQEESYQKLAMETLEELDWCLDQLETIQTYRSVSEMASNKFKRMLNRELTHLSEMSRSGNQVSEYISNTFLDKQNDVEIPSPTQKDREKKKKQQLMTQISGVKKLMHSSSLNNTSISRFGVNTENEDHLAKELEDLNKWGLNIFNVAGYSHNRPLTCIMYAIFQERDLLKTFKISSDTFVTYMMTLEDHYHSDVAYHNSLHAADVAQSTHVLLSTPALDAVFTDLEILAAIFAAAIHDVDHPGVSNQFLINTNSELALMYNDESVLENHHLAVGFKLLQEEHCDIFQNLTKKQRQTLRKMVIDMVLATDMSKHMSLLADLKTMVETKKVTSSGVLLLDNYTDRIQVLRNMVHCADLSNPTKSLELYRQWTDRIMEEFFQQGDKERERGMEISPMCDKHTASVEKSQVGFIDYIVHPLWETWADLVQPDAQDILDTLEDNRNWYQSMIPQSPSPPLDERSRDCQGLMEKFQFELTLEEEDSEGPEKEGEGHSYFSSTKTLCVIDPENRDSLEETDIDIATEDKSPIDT
Method: as §1, §2

2 Assay (2 uM), PDE 4A1 (PDE4A1)	1 Assay (20 uM), PDE 4A1 (PDE4A1)	2 Assay (2 uM), PDE 4B3 (PDE4B3)	1 Assay (20 uM), PDE 4B3 (PDE4B3)	SMILES
17.41	64.18	22.05	−0.26	COC(=O)C1=C(C)N(c2ccccc2Cl)C(=O)/C1=C\c1cccs1 [Compound 27]
–	106.90	–	200.51	Cc1ccc2c(c1)c1nc3ccccc3nc1n2C(C)C [Compound 41]
27.01	98.84	37.54	70.26	COC(=O)C1=C(C)N(C2CCCCC2)C(=O)/C1=C\c1cccs1 [Compound 22]

Second part, the molecule before the results:

SMILES	2 Assay (2 uM), PDE 4A1 (PDE4A1)	1 Assay (20 uM), PDE 4A1 (PDE4A1)	2 Assay (2 uM), PDE 4B3 (PDE4B3)	1 Assay (20 uM), PDE 4B3 (PDE4B3)
COC(=O)C1=C(C)N(c2ccccc2F)C(=O)/C1=C\c1cccc(OC)c1O [2008, C21]	–	18.97 ND ND ND ND	–	24.16 ND ND ND ND
COC(=O)C1=C(C)N(c2ccccc2)/C(=C/c2cccs2)C1=O [2008, K19]	–	−0.46 ND ND ND ND	–	−0.61 ND ND ND ND
COC(=O)C1=C(C)N(c2ccc(C(C)C)cc2)C(=O)/C1=C\c1cccs1 [2008, O19]	–	0.80 ND ND ND ND	–	−2.99 ND ND ND ND
